Laboratory results as given in PubChem BioAssay (NCI).
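48-hour exposure; five concentrations; linearly interpolated endpoints. The concentration for full growth arrest is given as TGI.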

What was measured:
Assay in all cases: NCI tumour cell line growth inhibition, 48 h
[1] = system: OVCAR-4 ovarian
[2] = system: UACC-257 melanoma
[3] = system: MCF7 breast
[4] = system: SF-295 CNS
[5] = system: TK-10 renal
[6] = system: HS 578T breast
[7] = system: SN12C renal
[8] = system: KM12 colon
[9] = system: HT29 colon
[10] = system: HCC-2998 colon
[11] = system: SF-539 CNS
[12] = system: SK-MEL-2 melanoma
[13] = system: SK-MEL-5 melanoma
[14] = system: OVCAR-8 ovarian
[15] = system: DU-145 prostate
[16] = system: EKVX NSCLC
[17] = system: NCI-H522 lung
[18] = system: COLO 205 colon
[19] = system: CCRF-CEM leukemia
[20] = system: HCT-116 colon

Measured: TGI

CCOC(=O)C(NC(C)=O)(Nc1ccc(F)cc1)C(F)(F)F (stereo not given)
> 100 µM: [1] | [2] | [3] | [4] | [5] | [6] | [7] | [8] | [9] | [10] | [11] | [12] | [13] | [14] | [15] | [16] | [17] | [18] | [19] | [20]
